Test results as given in PMC11583123, “Linker Chemistry and Connectivity Fine-Tune the Immune Response and Kinetic Solubility of Conjugated NOD2/TLR7 Agonists” (Bioconjugate Chemistry, 2024).

Key:
[1] = Kinetic solubility in PBS (UHPLC, method of Hoelke et al.); format: physicochemical; conditions: for solubility kinetic: PBS, aqueous with cosolvent or surfactant or cyclodextrin, kinetic from dmso stock, 5% DMSO
Procedure: Second, the kinetic solubility of all individual building blocks (compounds 4-7) and conjugates was determined (results are listed in Table 1) in order to highlight how fine-tuning of linker traits can impact this physicochemical property. Kinetic solubility refers to the maximum solubility of a compound when it precipitates from a supersaturated solution, which is metastable and not in equilibrium; it was measured using the method described by Hoelke et al.[34] The length and composition of the linker as well as linkage site are important for activity and physicochemical characteristics of conjugates, which in turn affect their pharmacokinetic profiles. In general, the benzylic COOH was exploited exclusively as the linker attachment site in TLR7 agonist-featuring conjugates, while two potential linkage sites were considered in the structure of NOD2 agonist. […] In conjugates 22-24 and 29, the moieties were connected via the γ-COOH group of the NOD2 agonist. […] It has to be kept in mind that among the polyalkylethers, the structural requirements for aqueous solubility are poised toward the (−OCH2CH2−)n unit while (−OCH2CH2CH2−)n is not beneficial in this respect.[35] […]
suspension was filtered through a syringe filter (0.45 μm), diluted 2.25-fold with acetonitrile, and analyzed with UHPLC. The solubility was quantified with a five-point calibration curve from 500 to 0.8 μM generated by dilution of the original DMSO solution into a 1:1 mixture of acetonitrile and PBS. The content of DMSO in all solutions was fixed to 5% by adding the respective amounts of DMSO. The column used was Waters Acquity UPLC BEH C18 (1.7 μm, 2.1 × 50 mm). The eluent was a mixture of 0.1% TFA in water (A) and acetonitrile (B), with a gradient of (%B): 0−6 min, 5−95%; 6−8 min, 95%; 8−8.5 min, 95−5%. The column was thermostated at 40 °C.
3.1. Hek-Blue NOD2, TLR7 and TLR8 cells. […]
(BioTek Synergy microplate reader; Winooski, VT, USA). EC50 values were calculated using Prism

[2] = biological target: T1, human NOD2 (Homo sapiens, UniProt Q9HC29); test: HEK-Blue NOD2 NF-κB SEAP reporter assay; format: cell-based; conditions: HEK-Blue NOD2 cells
T1 construct: host or cells: HEK-Blue NOD2 (HEK293-derived)
From the text: (§1) The building blocks and synthesized conjugates were initially assessed for their receptor-specific activities toward NOD2, TLR7 and TLR8 using the commercially available HEK-Blue NOD2, TLR7 and TLR8 reporter cell lines. These cell lines were derived from HEK293 cells by cotransfection of human NOD2/TLR7/TLR8 and an NF-κB-inducible secreted embryonic alkaline phosphatase (SEAP). Activation of NOD2/TLR7/TLR8, and subsequently of NF-κB, leads to the expression and secretion of SEAP, the levels of which can be quantified colorimetrically. […]
(§2) 3.1. Hek-Blue NOD2, TLR7 and TLR8 cells.
(§3) HEK-Blue NOD2, TLR7, and TLR8 cells (Invivogen, San Diego, CA, USA) were cultured according to the manufacturer instructions in Dulbecco’s modified Eagle’s medium (Sigma-Aldrich, St. Louis, MO, USA) supplemented with 10% heat-inactivated fetal bovine serum (Gibco), 2 mM L-glutamine (Sigma-Aldrich), 100 U/mL penicillin (Sigma-Aldrich), 100 µg/mL streptomycin (Sigma-Aldrich), and 100 µg/mL Normocin (Invivogen) for two passages. All subsequent passages of NOD2 and TLR8 cells were cultured in medium additionally supplemented with 100 µg/mL Zeocin and 30 µg/mL Blasticidin (Invivogen) and of TLR7 cells with 100 µg/mL Zeocin and 10 µg/mL Blasticidin. […]
(§4) The tested compounds were dissolved in DMSO and further diluted in culture medium to the desired final concentrations, such that the final DMSO concentration never exceeded 0.1%. […]
(§5) 3.4 NOD2/TLR7/TLR8 NF-kB reporter assay
(§6) HEK-Blue NOD2 cells (25,000 cells/well), TLR7 and TLR8 cells (40,000 cells/well) were seeded in 96-well plates in 100 µL HEK-Blue detection medium (Invivogen, San Diego, CA, USA) and treated with […]
(§7) corresponding vehicle (0.1% DMSO). After 18 h of incubation (37 °C, 5% CO2), secreted embryonic

[3] = biological target: T2, human TLR7 (Homo sapiens, UniProt Q9NYK1); test: HEK-Blue TLR7 NF-κB SEAP reporter assay; format: cell-based; conditions: for EC50 / TLR7 agonistic activity (in words): HEK-Blue TLR7 cells; for EC50: 18 h, eight concentrations (1 nM to 10 μM), mean ± SEM; for TLR7 agonistic activity (in words): up to 10 μM
T2 construct: host or cells: HEK-Blue TLR7 (HEK293-derived)
T2 sequence (Q9NYK1 27-1049): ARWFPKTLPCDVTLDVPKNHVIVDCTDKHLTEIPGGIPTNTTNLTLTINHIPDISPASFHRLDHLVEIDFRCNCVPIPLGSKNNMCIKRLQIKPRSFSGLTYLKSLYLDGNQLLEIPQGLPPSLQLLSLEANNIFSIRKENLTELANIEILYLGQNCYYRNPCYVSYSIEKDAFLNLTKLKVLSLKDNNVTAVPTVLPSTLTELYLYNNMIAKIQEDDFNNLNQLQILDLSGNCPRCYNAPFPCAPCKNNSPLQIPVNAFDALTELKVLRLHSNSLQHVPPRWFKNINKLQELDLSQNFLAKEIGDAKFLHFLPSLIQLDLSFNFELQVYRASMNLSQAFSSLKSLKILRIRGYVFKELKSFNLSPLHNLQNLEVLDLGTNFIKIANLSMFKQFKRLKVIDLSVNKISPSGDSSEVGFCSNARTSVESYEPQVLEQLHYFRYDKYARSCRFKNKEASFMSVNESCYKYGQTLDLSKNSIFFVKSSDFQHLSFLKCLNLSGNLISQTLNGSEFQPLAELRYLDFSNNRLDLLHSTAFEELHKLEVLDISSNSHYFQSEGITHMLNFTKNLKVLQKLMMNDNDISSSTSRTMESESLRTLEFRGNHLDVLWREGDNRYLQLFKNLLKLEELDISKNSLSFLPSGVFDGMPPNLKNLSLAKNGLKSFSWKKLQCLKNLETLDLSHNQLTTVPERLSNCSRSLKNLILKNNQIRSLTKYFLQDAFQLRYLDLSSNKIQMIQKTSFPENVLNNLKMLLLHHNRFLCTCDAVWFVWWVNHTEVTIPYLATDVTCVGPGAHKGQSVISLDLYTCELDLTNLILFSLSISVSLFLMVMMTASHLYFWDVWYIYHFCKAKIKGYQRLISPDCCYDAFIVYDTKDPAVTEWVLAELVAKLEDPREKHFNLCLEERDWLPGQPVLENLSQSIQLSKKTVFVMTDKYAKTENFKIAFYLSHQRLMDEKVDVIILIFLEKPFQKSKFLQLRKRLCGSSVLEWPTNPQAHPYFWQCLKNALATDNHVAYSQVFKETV
From the text: as §1, §2, §3, §4, §5, §6, §7

[4] = biological target: T3, human TLR8 (Homo sapiens, UniProt Q9NR97); test: HEK-Blue TLR8 NF-κB SEAP reporter assay; format: cell-based; conditions: HEK-Blue TLR8 cells, 18 h, eight concentrations (1 nM to 10 μM), mean ± SEM
T3 construct: host or cells: HEK-Blue TLR8 (HEK293-derived)
T3 sequence (Q9NR97 27-1041): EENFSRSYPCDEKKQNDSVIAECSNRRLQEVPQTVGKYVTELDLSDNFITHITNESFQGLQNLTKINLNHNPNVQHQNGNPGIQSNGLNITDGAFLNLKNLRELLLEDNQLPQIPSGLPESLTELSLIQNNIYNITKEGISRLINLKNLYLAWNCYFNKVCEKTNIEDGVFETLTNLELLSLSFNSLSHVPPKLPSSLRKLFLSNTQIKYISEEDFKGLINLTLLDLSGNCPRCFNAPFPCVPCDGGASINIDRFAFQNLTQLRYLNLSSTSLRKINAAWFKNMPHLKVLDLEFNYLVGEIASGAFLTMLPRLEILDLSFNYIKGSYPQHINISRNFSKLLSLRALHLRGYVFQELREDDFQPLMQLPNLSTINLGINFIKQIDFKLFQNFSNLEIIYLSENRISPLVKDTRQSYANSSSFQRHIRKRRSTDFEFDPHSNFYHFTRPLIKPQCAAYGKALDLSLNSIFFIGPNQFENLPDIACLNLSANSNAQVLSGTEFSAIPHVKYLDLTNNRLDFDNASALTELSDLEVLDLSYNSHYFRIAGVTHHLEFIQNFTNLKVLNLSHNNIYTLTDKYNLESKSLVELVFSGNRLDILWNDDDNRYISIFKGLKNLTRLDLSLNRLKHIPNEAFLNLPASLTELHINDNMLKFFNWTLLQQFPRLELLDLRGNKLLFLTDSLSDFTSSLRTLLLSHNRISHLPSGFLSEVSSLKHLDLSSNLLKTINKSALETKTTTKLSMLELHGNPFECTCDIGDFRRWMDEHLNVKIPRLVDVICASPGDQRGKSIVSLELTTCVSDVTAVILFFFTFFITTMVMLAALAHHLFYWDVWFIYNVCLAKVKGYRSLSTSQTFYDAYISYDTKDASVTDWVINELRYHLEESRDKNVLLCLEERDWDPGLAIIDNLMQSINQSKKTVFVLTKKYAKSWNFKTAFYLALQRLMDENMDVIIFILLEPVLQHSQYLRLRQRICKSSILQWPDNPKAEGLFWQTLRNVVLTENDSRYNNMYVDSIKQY
From the text: as §1, §2, §3, §4, §5, §6, §7

[5] = 18 h, eight concentrations (1 nM to 10 μM), mean ± SEM

T1 sequence (Q9HC29 whole entry): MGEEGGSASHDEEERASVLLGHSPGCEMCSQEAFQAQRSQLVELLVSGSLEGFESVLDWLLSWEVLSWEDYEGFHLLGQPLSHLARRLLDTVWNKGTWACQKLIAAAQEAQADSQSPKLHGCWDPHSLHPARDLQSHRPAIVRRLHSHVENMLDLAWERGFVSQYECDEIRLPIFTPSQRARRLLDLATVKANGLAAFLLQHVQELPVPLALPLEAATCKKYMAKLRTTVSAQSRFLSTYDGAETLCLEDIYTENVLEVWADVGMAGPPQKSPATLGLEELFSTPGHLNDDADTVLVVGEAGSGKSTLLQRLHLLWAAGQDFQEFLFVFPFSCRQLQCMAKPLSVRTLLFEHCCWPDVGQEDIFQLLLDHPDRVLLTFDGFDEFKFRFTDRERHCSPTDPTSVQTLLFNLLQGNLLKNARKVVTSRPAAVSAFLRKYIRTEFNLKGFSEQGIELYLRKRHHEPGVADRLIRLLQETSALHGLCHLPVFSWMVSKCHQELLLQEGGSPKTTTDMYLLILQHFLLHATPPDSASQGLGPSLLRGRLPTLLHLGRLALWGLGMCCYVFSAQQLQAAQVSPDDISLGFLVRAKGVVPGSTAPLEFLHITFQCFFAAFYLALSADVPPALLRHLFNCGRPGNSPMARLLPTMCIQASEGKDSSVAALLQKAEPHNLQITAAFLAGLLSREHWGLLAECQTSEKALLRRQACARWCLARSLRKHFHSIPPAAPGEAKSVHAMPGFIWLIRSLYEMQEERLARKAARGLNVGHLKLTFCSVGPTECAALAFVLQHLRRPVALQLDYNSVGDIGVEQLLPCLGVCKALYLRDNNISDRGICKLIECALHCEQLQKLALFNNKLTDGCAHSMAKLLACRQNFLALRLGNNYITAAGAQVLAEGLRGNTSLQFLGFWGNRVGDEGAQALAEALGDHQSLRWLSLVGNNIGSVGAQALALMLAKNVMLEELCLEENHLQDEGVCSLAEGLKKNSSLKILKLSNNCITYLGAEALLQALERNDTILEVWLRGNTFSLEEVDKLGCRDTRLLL

SMILES | solubility kinetic [1] | EC50 [4] | EC50 [2, 5] | EC50 [3] | TLR7 agonistic activity (in words) [3] | Boost in solubility over conjugate 2 ([1]; ratio of kinetic solubilities in PBS) | Enhancement of TLR7 activity over 22 and 29 ([3]; ratio of EC50 values) | EC50 [2]
CCOCc1nc2c(N)nc3ccccc3c2n1CC(C)(C)O [Resiquimod (6), Resiquimod, reference compound] | 469 µM |  |  |  |  |  |  | 
CCCCOc1nc(N)c2nc(O)n(Cc3ccc(C(=O)NCCCCCC(=O)Oc4ccc(/C=C/C(=O)NCC(=O)N[C@H](C(=O)N[C@H](CCC(=O)OCC)C(=O)OCC)C(C)C)cc4OC)cc3)c2n1 [compound 1] | 1.9 µM |  | 105 ± 2.8 nM | 98.6 ± 1.1 nM |  |  |  | 
CCCCOc1nc(N)c2nc(O)n(Cc3ccc(C(=O)NCCOCCOCCNC(=O)CC[C@@H](NC(=O)[C@@H](NC(=O)CNC(=O)/C=C/c4ccc(O)c(OC)c4)C(C)C)C(=O)OCC)cc3)c2n1 [compound 22] | 85.4 µM |  | > 10000 nM | 419 nM | activated TLR7 in the midnanomolar range | ~25 fold |  | 
CCCCOc1nc(N)c2nc(O)n(Cc3ccc(C(=O)NCCCOCCOCCOCCCNC(=O)CC[C@@H](NC(=O)[C@@H](NC(=O)CNC(=O)/C=C/c4ccc(O)c(OC)c4)C(C)C)C(=O)OCC)cc3)c2n1 [compound 23] | 38.6 µM |  | > 10000 nM | 165 nM | activated TLR7 in the midnanomolar range |  | 2.5 fold | 
CCCCOc1nc(N)c2nc(O)n(Cc3ccc(C(=O)NCCCCCCNC(=O)CC[C@@H](NC(=O)[C@@H](NC(=O)CNC(=O)/C=C/c4ccc(O)c(OC)c4)C(C)C)C(=O)OCC)cc3)c2n1 [compound 24] | 2.8 µM |  | 6160 ± 1250 nM | 238 nM | activated TLR7 in the midnanomolar range |  |  | 6200 nM
CCCCOc1nc(N)c2nc(O)n(Cc3ccc(C(=O)NCCOCCOCCNC(=O)[C@@H](CCC(=O)OCC)NC(=O)[C@@H](NC(=O)CNC(=O)/C=C/c4ccc(O)c(OC)c4)C(C)C)cc3)c2n1 [compound 26] | 9.2 µM |  | > 10000 nM | 247 nM | activated TLR7 in the midnanomolar range |  |  | 
CCCCOc1nc(N)c2nc(O)n(Cc3ccc(C(=O)NCCOCCOCCOCCn4cc(CNC(=O)CC[C@@H](NC(=O)[C@@H](NC(=O)CNC(=O)/C=C/c5ccc(O)c(OC)c5)C(C)C)C(=O)OCC)nn4)cc3)c2n1 [compound 29] | 35.4 µM |  | > 10000 nM | 391 nM | activated TLR7 in the midnanomolar range |  |  | 

The next lines start with results.

solubility kinetic [1] | EC50 [4] | SMILES | EC50 [2, 5] | EC50 [3] | TLR7 agonistic activity (in words) [3] | Boost in solubility over conjugate 2 ([1]; ratio of kinetic solubilities in PBS) | Enhancement of TLR7 activity over 22 and 29 ([3]; ratio of EC50 values) | EC50 [2]
3.67 µM |  | CCCCOc1nc(N)c2nc(O)n(Cc3ccc(C(=O)NCCOCCNC(=O)CC[C@@H](NC(=O)[C@@H](NC(=O)CNC(=O)/C=C/c4ccc(O)c(OC)c4)C(C)C)C(=O)OCC)cc3)c2n1 [compound 2] | > 10000 nM | 21.4 ± 1 nM |  |  |  | 
483 µM |  | CCCCOc1nc(N)c2nc(O)n(Cc3ccc(C(=O)O)cc3)c2n1 [compound 4, reference compound] |  | 226 ± 14.5 nM |  |  |  | 
415 µM |  | CCOC(=O)CCC(NC(=O)C(NC(=O)CNC(=O)C=Cc1ccc(O)c(OC)c1)C(C)C)C(=O)OCC (stereo not drawn) [compound 5] |  |  |  |  |  | 
337 µM | 5900 ± 1790 nM | CCOCc1nc2c(N)nc3ccccc3c2n1CC(C)(C)N [compound 7, reference compound] |  | 1820 ± 97 nM |  |  |  | 
